Assay results reported in patent publication US20060069132A1, “Azolecarboxamide herbicides” (priority 2004, published 2006).
Read-outs that look alike come from different tables or passages of the source.

Key:
barnyardgrass = assay: Test A pre-/postemergence herbicide test; assay type: in vivo, Echinochloa crus-galli; details: for pest or weed control at 500 g/ha / pest or weed control at 2000 g/ha: Echinochloa crus-galli, 240 h
Procedure, shortened: (§1)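 Greenhouse injury scoring (0–100, complete control = 100) at approximately ten days follows simultaneous pre- and postemergence application. Soil received a directed spray after seeding; seedlings of 2–10 cm at the one- to two-leaf stage were sprayed to runoff.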

velvetleaf = assay: Test A pre-/postemergence herbicide test; assay type: in vivo, Abutilon theophrasti; details: for pest or weed control at 500 g/ha / pest or weed control at 2000 g/ha: Abutilon theophrasti, 240 h
Procedure, shortened: as §1

cocklebur = assay: Test C pre-/postemergence herbicide test; assay type: in vivo, Xanthium strumarium
Procedure, shortened: (§2)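 Pre/post spray; non-phytotoxic solvent + surfactant. Post-timing 1–4 leaves, 2–18 cm. Read-out: visual % control vs untreated, day 12–14, greenhouse.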

kochia = assay: Test C pre-/postemergence herbicide test; assay type: in vivo, Kochia scoparia
Procedure, shortened: as §2

lambsquarters = assay: Test C pre-/postemergence herbicide test; assay type: in vivo, Chenopodium album
Procedure, shortened: as §2

morningglory = assay: Test C pre-/postemergence herbicide test; assay type: in vivo, Ipomoea coccinea; parameters: key to Plant response rating, Morningglory: 0 = no effect, 100 = complete control
Procedure, shortened: as §2

common ragweed = assay: Test C pre-/postemergence herbicide test; assay type: in vivo, Ambrosia elatior; parameters: key to Plant response rating, Ragweed: 0 = no effect, 100 = complete control
Procedure, shortened: as §2

[1] = test system: smallflower umbrella sedge; assay: Test C flooded paddy test; assay type: in vivo, Cyperus difformis
ducksalad = assay: Test C flooded paddy test; assay type: in vivo, Heteranthera limosa
[2] = Postemergence, 500 g ai/ha, 0 to 100 scale, 0 no effect, 100 complete control
[3] = Postemergence, 2000 g ai/ha, 0 to 100 scale, 0 no effect, 100 complete control
[4] = Preemergence, 500 g ai/ha, visual rating, 0 to 100 scale (0 no effect, 100 complete control)
[5] = Preemergence, 2000 g ai/ha, visual rating, 0 to 100 scale (0 no effect, 100 complete control)
[6] = 31 g ai/ha, preemergence, scale 0 to 100
[7] = 125 g ai/ha, scale 0 (no effect) to 100 (complete control), visual, 12 to 14 days, preemergence
[8] = 250 g ai/ha, scale 0 to 100 (0 no effect, 100 complete control), visual, 12 to 14 days, preemergence
[9] = 62 g ai/ha, scale 0 to 100 (0 no effect, 100 complete control)
[10] = 125 g ai/ha, scale of 0 to 100, 0 is no effect, 100 is complete control
[11] = 250 g ai/ha, scale of 0 to 100, 0 is no effect, 100 is complete control
[12] = 500 g ai/ha, visual rating after 12 to 14 days, scale 0 to 100 (0 no effect, 100 complete control)
[13] = 125 g ai/ha, scale 0 to 100 (0 no effect, 100 complete control)

CCc1nn(C(C)(C)C)cc1C(=O)Nc1cc(C(=O)N(C)C)ccc1F [Compound 222, N-[5-[(dimethylamino)carbonyl]-2-fluorophenyl]-1-(1,1-dimethylethyl)-3-ethyl-1H-pyrazole-4-carboxamide]
pest or weed control at 500 g/ha (barnyardgrass; post-emergence, Postemergence, 500 g ai/ha, 0 to 100 scale, 0 no effect, 100 complete control, read-out: Barnyardgrass plant response rating): 75% | pest or weed control at 2000 g/ha (barnyardgrass; post-emergence, Postemergence, 2000 g ai/ha, 0 to 100 scale, 0 no effect, 100 complete control, read-out: Plant response rating, Barnyardgrass): 90% | pest or weed control at 2000 g/ha (barnyardgrass; pre-emergence, Preemergence, 2000 g ai/ha, visual rating, 0 to 100 scale (0 no effect, 100 complete control), read-out: Barnyardgrass plant response rating): 100% | pest or weed control at 500 g/ha (barnyardgrass; pre-emergence, preemergence, 500 g ai/ha, visual injury, 0 to 100 scale (0 no effect, 100 complete control), read-out: Barnyardgrass plant response rating): 95% | pest or weed control at 500 g/ha (velvetleaf; post-emergence, Postemergence, 500 g ai/ha, 0 to 100 scale, 0 no effect, 100 complete control, read-out: Velvetleaf plant response rating): 80% | pest or weed control at 2000 g/ha (velvetleaf; post-emergence, Postemergence, 2000 g ai/ha, 0 to 100 scale, 0 no effect, 100 complete control, read-out: Plant response rating, Velvetleaf): 100% | pest or weed control at 2000 g/ha (velvetleaf; pre-emergence, Preemergence, 2000 g ai/ha, visual rating, 0 to 100 scale (0 no effect, 100 complete control), read-out: Velvetleaf plant response rating): 100% | pest or weed control at 500 g/ha (velvetleaf; pre-emergence, preemergence, 500 g ai/ha, visual injury, 0 to 100 scale (0 no effect, 100 complete control), read-out: Velvetleaf plant response rating): 95% | pest or weed control at 62 g/ha (cocklebur; Xanthium strumarium, pre-emergence, 312 h, 62 g ai/ha, preemergence, scale 0 to 100, read-out: Plant response rating, Cocklebur): 0% | pest or weed control at 125 g/ha (cocklebur; Xanthium strumarium, pre-emergence, 312 h, 125 g ai/ha, scale 0 (no effect) to 100 (complete control), visual, 12 to 14 days, read-out: Plant response rating, Cocklebur): 20% | pest or weed control at 250 g/ha (cocklebur; Xanthium strumarium, pre-emergence, 312 h, 250 g ai/ha, scale 0-100, read-out: Plant response rating, Cocklebur): 70% | pest or weed control at 500 g/ha (cocklebur; Xanthium strumarium, pre-emergence, 312 h, Preemergence, 500 g ai/ha, scale 0 to 100, 0 no effect, 100 complete control, read-out: Cocklebur plant response rating): 100% | pest or weed control at 62 g/ha (kochia; Bassia scoparia, pre-emergence, 62 g ai/ha, preemergence, scale 0 to 100, read-out: Plant response rating, Kochia): 90% | pest or weed control at 125 g/ha (kochia; Bassia scoparia, pre-emergence, 125 g ai/ha, scale 0 (no effect) to 100 (complete control), visual, 12 to 14 days, read-out: Plant response rating, Kochia): 100% | pest or weed control at 250 g/ha (kochia; Bassia scoparia, pre-emergence, 250 g ai/ha, scale 0-100, read-out: Plant response rating, Kochia): 100% | pest or weed control at 500 g/ha (kochia; Bassia scoparia, pre-emergence, 500 g ai/ha, scale 0 to 100 (0 no effect, 100 complete control), visual, 12 to 14 days, read-out: Plant response rating, Kochia): 100% | pest or weed control at 62 g/ha (lambsquarters; Chenopodium album, pre-emergence, 62 g ai/ha, preemergence, scale 0 to 100, read-out: Plant response rating, Lambsquarters): 100% | pest or weed control at 125 g/ha (lambsquarters; Chenopodium album, pre-emergence, 125 g ai/ha, scale 0 (no effect) to 100 (complete control), visual, 12 to 14 days, read-out: Plant response rating, Lambsquarters): 100% | pest or weed control at 250 g/ha (lambsquarters; Chenopodium album, pre-emergence, 250 g ai/ha, scale 0-100, read-out: Plant response rating, Lambsquarters): 100% | pest or weed control at 500 g/ha (lambsquarters; Chenopodium album, pre-emergence, 500 g ai/ha, scale 0 to 100 (0 no effect, 100 complete control), visual, 12 to 14 days, read-out: Plant response rating, Lambsquarters): 100% | pest or weed control at 62 g/ha (morningglory; Ipomoea, pre-emergence, 62 g ai/ha, preemergence, scale 0 to 100, read-out: Plant response rating, Morningglory): 0% | pest or weed control at 125 g/ha (morningglory; Ipomoea, pre-emergence, 125 g ai/ha, scale 0 (no effect) to 100 (complete control), visual, 12 to 14 days, read-out: Plant response rating, Morningglory): 20% | pest or weed control at 250 g/ha (morningglory; Ipomoea, pre-emergence, 250 g ai/ha, scale 0-100, read-out: Plant response rating, Morningglory): 30% | pest or weed control at 500 g/ha (morningglory; Ipomoea, pre-emergence, 500 g ai/ha, scale 0 to 100 (0 no effect, 100 complete control), visual, 12 to 14 days, read-out: Plant response rating, Morningglory): 100% | pest or weed control at 62 g/ha (common ragweed; Ambrosia artemisiifolia, pre-emergence, 62 g ai/ha, preemergence, scale 0 to 100, read-out: Plant response rating, Ragweed): 80% | pest or weed control at 250 g/ha (common ragweed; Ambrosia artemisiifolia, pre-emergence, 250 g ai/ha, scale 0-100, read-out: Plant response rating, Ragweed): 100% | pest or weed control at 500 g/ha (common ragweed; Ambrosia artemisiifolia, pre-emergence, 500 g ai/ha, scale 0 to 100 (0 no effect, 100 complete control), visual, 12 to 14 days, read-out: Plant response rating, Ragweed): 100% | pest or weed control at 62 g/ha ([1]; Cyperus difformis, 62 g ai/ha, scale 0 to 100 (0 no effect, 100 complete control), read-out: Sedge, Umbrella plant response rating): 65% | pest or weed control at 125 g/ha ([1]; Cyperus difformis, 125 g ai/ha, scale 0 to 100 (0 no effect, 100 complete control), read-out: Sedge, Umbrella plant response rating): 75% | pest or weed control at 250 g/ha ([1]; Cyperus difformis, 250 g ai/ha, scale of 0 to 100, 0 is no effect, 100 is complete control, read-out: Sedge, Umbrella plant response rating): 85% | pest or weed control at 500 g/ha ([1]; Cyperus difformis, 500 g ai/ha, visual rating after 12 to 14 days, scale 0 to 100 (0 no effect, 100 complete control), read-out: Plant response rating, Sedge, Umbrella): 90% | pest or weed control at 62 g/ha (ducksalad; Heteranthera limosa, 62 g ai/ha, scale 0 to 100 (0 no effect, 100 complete control), read-out: Ducksalad plant response rating): 70% | pest or weed control at 125 g/ha (ducksalad; Heteranthera limosa, 125 g ai/ha, scale 0 to 100 (0 no effect, 100 complete control), read-out: Ducksalad plant response rating): 75% | pest or weed control at 250 g/ha (ducksalad; Heteranthera limosa, 250 g ai/ha, scale of 0 to 100, 0 is no effect, 100 is complete control, read-out: Ducksalad plant response rating): 85% | pest or weed control at 500 g/ha (ducksalad; Heteranthera limosa, 500 g ai/ha, visual rating after 12 to 14 days, scale 0 to 100 (0 no effect, 100 complete control), read-out: Plant response rating, Ducksalad): 95%

CCn1nc(C(C)(C)C)cc1C(=O)Nc1cccc(C(=O)NCC2CC2)c1 [Compound 62]
Plant response rating, Barnyardgrass (barnyardgrass; [2]): 65 | Plant response rating, Barnyardgrass (barnyardgrass; [3]): 100 | Barnyardgrass plant response rating (barnyardgrass; [4]): 50 | Barnyardgrass plant response rating (barnyardgrass; Preemergence, 2000 g ai/ha, 0 to 100 scale, 0 no effect, 100 complete control): 95 | Plant response rating, Velvetleaf (velvetleaf; [3]): 20 | Velvetleaf plant response rating (velvetleaf; [4]): 70 | Velvetleaf plant response rating (velvetleaf; [5]): 95 | Plant response rating, Cocklebur (cocklebur; [6]): 0 | Plant response rating (0 = no effect, 100 = complete control), Cocklebur (cocklebur; 62 g ai/ha, preemergence): 0 | Plant response rating, Cocklebur (cocklebur; [7]): 0 | Plant response rating, Cocklebur (cocklebur; [8]): 0 | Plant response rating, Kochia (kochia; [6]): 100 | Plant response rating (0 = no effect, 100 = complete control), Kochia (kochia; 62 g ai/ha, preemergence): 100 | Plant response rating, Kochia (kochia; [7]): 100 | Plant response rating, Kochia (kochia; [8]): 100 | Plant response rating, Lambsquarters (lambsquarters; [6]): 100 | Plant response rating (0 = no effect, 100 = complete control), Lambsquarters (lambsquarters; 62 g ai/ha, preemergence): 100 | Plant response rating, Lambsquarters (lambsquarters; [7]): 100 | Plant response rating, Lambsquarters (lambsquarters; [8]): 100 | Plant response rating, Morningglory (morningglory; [7]): 0 | Plant response rating, Morningglory (morningglory; [8]): 10 | Plant response rating, Ragweed (common ragweed; [6]): 0 | Plant response rating (0 = no effect, 100 = complete control), Ragweed (common ragweed; 62 g ai/ha, preemergence): 10 | Plant response rating, Ragweed (common ragweed; [7]): 20 | Plant response rating, Ragweed (common ragweed; [8]): 85 | Sedge, Umbrella plant response rating [1, 9]: 45 | Sedge, Umbrella plant response rating [1, 10]: 60 | Sedge, Umbrella plant response rating [1, 11]: 80 | Plant response rating, Sedge, Umbrella [1, 12]: 85 | Ducksalad plant response rating (ducksalad; [9]): 25 | Ducksalad plant response rating (ducksalad; [10]): 35 | Ducksalad plant response rating (ducksalad; [11]): 90 | Plant response rating, Ducksalad (ducksalad; [12]): 90

CC(=O)c1cccc(NC(=O)c2cc(C(C)(C)C)nn2CCF)c1 [Compound 128]
Barnyardgrass plant response rating (barnyardgrass; [2]): 70 | Plant response rating, Barnyardgrass (barnyardgrass; [3]): 80 | Barnyardgrass plant response rating (barnyardgrass; [4]): 55 | Barnyardgrass plant response rating (barnyardgrass; [5]): 85 | Velvetleaf plant response rating (velvetleaf; [2]): 20 | Plant response rating, Velvetleaf (velvetleaf; [3]): 35 | Velvetleaf plant response rating (velvetleaf; [5]): 85 | Velvetleaf plant response rating (velvetleaf; preemergence, 500 g ai/ha, visual injury, 0 to 100 scale (0 no effect, 100 complete control)): 75 | Plant response rating (0 = no effect, 100 = complete control), Cocklebur (cocklebur; 62 g ai/ha, preemergence): 10 | Plant response rating, Cocklebur (cocklebur; [7]): 10 | Plant response rating (0 = no effect, 100 = complete control), Kochia (kochia; 62 g ai/ha, preemergence): 0 | Plant response rating, Kochia (kochia; [7]): 0 | Plant response rating, Lambsquarters (lambsquarters; [7]): 30 | Plant response rating (0 = no effect, 100 = complete control), Morningglory (morningglory; 62 g ai/ha, preemergence): 30 | Plant response rating, Morningglory (morningglory; [7]): 30 | Plant response rating (0 = no effect, 100 = complete control), Ragweed (common ragweed; 62 g ai/ha, preemergence): 10 | Plant response rating, Ragweed (common ragweed; [7]): 20 | Sedge, Umbrella plant response rating [1, 9]: 80 | Sedge, Umbrella plant response rating [1, 13]: 90 | Sedge, Umbrella plant response rating [1, 11]: 95 | Plant response rating, Sedge, Umbrella [1, 12]: 95 | Ducksalad plant response rating (ducksalad; [9]): 80 | Ducksalad plant response rating (ducksalad; [13]): 95 | Ducksalad plant response rating (ducksalad; [11]): 95 | Plant response rating, Ducksalad (ducksalad; [12]): 95
